Laboratory results: ChEMBL document CHEMBL1148995, “Antitumor agents from bohemic acid complex, VI. Schaunardimycin” (J Nat Prod, 1984)

Experiments:
[1] = system: Mus musculus; assay: Toxicity in mouse L1210 cells implanted CDF1 mouse assessed as average weight gain at 0.2 mg/kg, ip qd for 1 to 5 days; format: organism-based; set-up: dose 0.2 mg/kg, route intraperitoneal; conditions: in vivo
[2] = system: Mus musculus; assay: Toxicity in mouse L1210 cells implanted CDF1 mouse assessed as average weight gain at 6.4 mg/kg, ip qd for 1 to 5 days; format: organism-based; set-up: dose 6.4 mg/kg, route intraperitoneal; conditions: in vivo
[3] = system: Mus musculus; assay: Toxicity in mouse L1210 cells implanted CDF1 mouse assessed as survivors on day 5 at 12.8 mg/kg, ip single dose on day 1; format: organism-based; set-up: dose 12.8 mg/kg, route intraperitoneal; conditions: in vivo
[4] = system: L1210; assay: Antitumor activity against mouse L1210 cells implanted in CDF1 mouse at 0.2 mg/kg, ip single dose on day 1 relative to control; format: functional; conditions: route intraperitoneal
[5] = system: Mus musculus; assay: Toxicity in mouse L1210 cells implanted CDF1 mouse assessed as average weight gain at 6.4 mg/kg, ip single dose on day 1; format: organism-based; set-up: dose 6.4 mg/kg, route intraperitoneal; conditions: in vivo
[6] = system: L1210; assay: Antitumor activity against mouse L1210 cells implanted in CDF1 mouse assessed as median survival time at 0.4 mg/kg, ip single dose on day 1; format: functional; conditions: route intraperitoneal
[7] = system: Mus musculus; assay: Toxicity in mouse L1210 cells implanted CDF1 mouse assessed as average weight gain at 0.8 mg/kg, ip single dose on day 1; format: organism-based; set-up: dose 0.8 mg/kg, route intraperitoneal; conditions: in vivo
[8] = system: Mus musculus; assay: Toxicity in mouse L1210 cells implanted CDF1 mouse assessed as average weight gain at 0.4 mg/kg, ip single dose on day 1; format: organism-based; set-up: dose 0.4 mg/kg, route intraperitoneal; conditions: in vivo
[9] = system: L1210; assay: Antitumor activity against mouse L1210 cells implanted in CDF1 mouse at 0.4 mg/kg, ip single dose on day 1 relative to control; format: functional; conditions: route intraperitoneal
[10] = system: L1210; assay: Antitumor activity against mouse L1210 cells implanted in CDF1 mouse at 12.8 mg/kg, ip single dose on day 1 relative to control; format: functional; conditions: route intraperitoneal
[11] = system: Mus musculus; assay: Toxicity in mouse L1210 cells implanted CDF1 mouse assessed as survivors on day 5 at 0.4 mg/kg, ip single dose on day 1; format: organism-based; set-up: dose 0.4 mg/kg, route intraperitoneal; conditions: in vivo
[12] = system: Mus musculus; assay: Toxicity in mouse L1210 cells implanted CDF1 mouse assessed as survivors on day 5 at 1.6 mg/kg, ip single dose on day 1; format: organism-based; set-up: dose 1.6 mg/kg, route intraperitoneal; conditions: in vivo
[13] = system: Mus musculus; assay: Toxicity in mouse L1210 cells implanted CDF1 mouse assessed as survivors on day 5 at 0.8 mg/kg, ip qd for 1 to 5 days; format: organism-based; set-up: dose 0.8 mg/kg, route intraperitoneal; conditions: in vivo
[14] = system: L1210; assay: Antitumor activity against mouse L1210 cells implanted in CDF1 mouse assessed as median survival time at 6.4 mg/kg, ip qd for 1 to 5 days; format: functional; conditions: route intraperitoneal
[15] = system: L1210; assay: Antitumor activity against mouse L1210 cells implanted in CDF1 mouse at 6.4 mg/kg, ip qd for 1 to 5 days relative to control; format: functional; conditions: route intraperitoneal
[16] = system: L1210; assay: Antitumor activity against mouse L1210 cells implanted in CDF1 mouse at 0.8 mg/kg, ip qd for 1 to 5 days relative to control; format: functional; conditions: route intraperitoneal
[17] = system: L1210; assay: Antitumor activity against mouse L1210 cells implanted in CDF1 mouse assessed as median survival time at 1.6 mg/kg, ip single dose on day 1; format: functional; conditions: route intraperitoneal
[18] = system: Mus musculus; assay: Toxicity in mouse L1210 cells implanted CDF1 mouse assessed as average weight gain at 0.4 mg/kg, ip qd for 1 to 5 days; format: organism-based; set-up: dose 0.4 mg/kg, route intraperitoneal; conditions: in vivo
[19] = system: L1210; assay: Antitumor activity against mouse L1210 cells implanted in CDF1 mouse at 0.8 mg/kg, ip single dose on day 1 relative to control; format: functional; conditions: route intraperitoneal
[20] = system: Mus musculus; assay: Toxicity in mouse L1210 cells implanted CDF1 mouse assessed as survivors on day 5 at 0.2 mg/kg, ip qd for 1 to 5 days; format: organism-based; set-up: dose 0.2 mg/kg, route intraperitoneal; conditions: in vivo
[21] = system: Mus musculus; assay: Toxicity in mouse L1210 cells implanted CDF1 mouse assessed as average weight gain at 0.8 mg/kg, ip qd for 1 to 5 days; format: organism-based; set-up: dose 0.8 mg/kg, route intraperitoneal; conditions: in vivo
[22] = system: Mus musculus; assay: Toxicity in mouse L1210 cells implanted CDF1 mouse assessed as survivors on day 5 at 0.8 mg/kg, ip single dose on day 1; format: organism-based; set-up: dose 0.8 mg/kg, route intraperitoneal; conditions: in vivo
[23] = system: L1210; assay: Antitumor activity against mouse L1210 cells implanted in CDF1 mouse assessed as median survival time at 1.6 mg/kg, ip qd for 1 to 5 days; format: functional; conditions: route intraperitoneal
[24] = system: L1210; assay: Antitumor activity against mouse L1210 cells implanted in CDF1 mouse assessed as median survival time at 0.2 mg/kg, ip single dose on day 1; format: functional; conditions: route intraperitoneal
[25] = system: L1210; assay: Antitumor activity against mouse L1210 cells implanted in CDF1 mouse at 0.2 mg/kg, ip qd for 1 to 5 days relative to control; format: functional; conditions: route intraperitoneal
[26] = system: Mus musculus; assay: Toxicity in mouse L1210 cells implanted CDF1 mouse assessed as average weight gain at 3.2 mg/kg, ip qd for 1 to 5 days; format: organism-based; set-up: dose 3.2 mg/kg, route intraperitoneal; conditions: in vivo

## CC[C@@]1(O)C[C@H](O[C@H]2C[C@H](N(C)C)[C@H](O[C@H]3C[C@H](O)[C@H](O)[C@H](C)O3)[C@H](C)O2)c2c(cc3c(c2O)C(=O)c2c(O)ccc(O)c2C3=O)[C@H]1C(=O)OC [MUSETTAMYCIN]
[1]
  weight gain: 2.8 g
[2]
  Activity: -1.9 g
[3]
  Activity: Active
[4]
  T/C: 100%
[5]
  Activity: 0.3 g
[6]
  MST: 6.5 days
[7]
  weight gain: 2.6 g
[8]
  weight gain: 2.7 g
[9]
  T/C: 108%
[10]
  T/C: 167%
[11]
  Activity: Active
[12]
  Activity: Active
[13]
  Activity: Active
[14]
  MST: 6 days
[15]
  T/C: 100%
[16]
  T/C: 133%
[17]
  MST: 8 days
[18]
  weight gain: 2.3 g
[19]
  T/C: 117%
[20]
  Activity: Active
[21]
  weight gain: 1.4 g
[22]
  Activity: Active
[23]
  MST: 9.5 days
[24]
  MST: 6 days
[25]
  T/C: 117%
[26]
  Activity: -1.2 g
